Our source for the inhibition values is ChEMBL document CHEMBL4385591, “Structural studies of the binding of an antagonistic cyclic peptide to the VEGFR1 domain 2” (Eur J Med Chem, 2019).

One test has as its system RF/6A. The note with it: Macaca mulatta, 50 uM.
The test system of the next test is HUVEC. The note with it: Homo sapiens, 50 uM.

Structures are written as SMILES. Calls of active or inactive are those of the source. The calls are words filed in the database; no cut-off is given here. Peptide text beside a SMILES is read from it.

Description for HUVEC: Antiangiogenic activity in HUVEC cells assessed as inhibition of VEGF-A-induced microtube formation at 50 uM pre-incubated for 15 mins followed by VEGF-A stimulation for 4 hrs by matrigel based capillary tube formation assay
Description for RF/6A: Antiangiogenic activity in rhesus monkey RF/6A cells assessed as inhibition of VEGF-A-induced microtube formation at 50 uM pre-incubated for 15 mins followed by VEGF-A stimulation for 4 hrs by matrigel based capillary tube formation assay

In the case of `CC(C)C[C@@H]1NC(=O)CNC(=O)[C@H](CCC(=O)O)NC(=O)[C@H](CC(=O)O)NC(=O)[C@H](CCCCN)NC(=O)[C@H](Cc2ccc(O)cc2)NC(=O)CC[C@@H](C(=O)NCCc2ccc(O)c(O)c2)NC(=O)[C@H](CCC(=O)O)NC1=O` (HELM PEPTIDE1{Y.K.D.E.G.L.E.E.[Oc1ccc(CCN[*:1])cc1O]}$PEPTIDE1,PEPTIDE1,1:R1-8:R3$$$V2.0), the inhibition entry with RF/6A and in the test with HUVEC was “Active” each time.
